Article PMC5978685, “Design, Synthesis, and Evaluation of Novel Immunomodulatory Small Molecules Targeting the CD40–CD154 Costimulatory Protein-Protein Interaction” (Molecules : A Journal of Synthetic Chemistry and Natural …, 2018)

Test system: HEK Blue cells
Experiment: MTS cytotoxicity assay in HEK Blue cells
Assay type: cell-based
Settings: LC50 (MTS) / NF-κB IC50 in sensor cells
Excerpt: As further confirmation of the inhibitory activity of our compounds, a cell-based assay was used with sensor cells (HEK Blue CD40) containing a secreted embryonic alkaline phosphatase (SEAP) reporter gene under the control of a promoter fused to a NF-κB binding site and transfected with CD40. […] For all tested compounds, the corresponding IC50 values are higher than those determined in the cell-free binding inhibition assay (Table 1) representing a loss of activity which is likely due to non-specific binding on account of the presence of proteins and cells in the assay, as well as hydrophobicity-related problems. Cytotoxicities were also evaluated in these same cells and at the same concentrations using a standard MTS assay to ensure that effects are present at non-toxic concentration levels.
For the MTS assay, HEK Blue cells were cultured and prepared in the same manner as in the CD40 sensor assay. Then cells were added to a 96-well microtiter plate at a density of 50,000 cells/well in the absence or presence of various concentrations of compounds diluted in the same media, without the addition of CD154. The plate was incubated at 37 °C for 24 h. 20 µL per well of MTS, 3-(4,5-dimethylthiazol-2-yl)-5-(3-carboxymethoxyphenyl)-2-(4-sulfophenyl)-2H-tetrazolium, (Promega, Madison, WI, USA) was added to the culture after treatments, and cells were incubated at 37 °C for 4 h. Formazan levels were measured using a plate reader at 490 nm.
All binding inhibition and cell assays were tested in duplicate or triplicate per plates, and assays were performed as at least three independent experiments. As before, binding and cytotoxicity data were converted to percent inhibition and fitted with standard log inhibitor vs. normalized response models using nonlinear regression in GraphPad Prism (GraphPad, La Jolla, CA, USA) to establish half-maximal (median) inhibitory concentration (IC50) or median lethal concentration (LC50) values. Cell assay data were fitted with a similar model that also allowed for a variable slope using the log inhibitor vs. normalized response (variable slope) model from Prism with a Hill slope (n) shared across all compounds. Cell assays and draining lymph node data were analyzed by one-way repeated-measures analysis of variance (ANOVA) followed by Dunnett’s multiple comparison test as a post hoc test for individual differences using GraphPad Prism and a significance level of p < 0.05 for all comparisons.

With `O=C(Nc1ccc(-c2ccc(C(=O)Nc3cccc4cccc(S(=O)(=O)O)c34)cc2)nc1)c1ccc([N+](=O)[O-])cc1` [Compound 18, 8-(4-(5-(4-Nitrobenzamido)pyridin-2-yl)benzamido)naphthalene-1-sulfonic acid] the “therapeutic index, TI = LC50/IC50” value was 15.
